In this test the test system is chronic occipital-cervical pain. The test is described as follows: Pain intensity (numerical rating scale, NRS) in a chronic pain patient during drug treatment. It is filed as in vivo, human. The conditions noted are these: for Effect on pain of the chronic pain patient (in words): single chronic pain patient, oral administration, overall conclusion. How it is done:
Morphine, fluvoxamine, aripiprazole, and other drugs were administered for about 11 months to a patient who was diagnosed as a chronic pain sufferer with chronic occipital-cervical pain that had continued for ten years or more. The intensity of the pain in the patients' occipital-cervical region (neck) was evaluated over time.
The intensity of pain was evaluated using a numerical rating scale (NRS) in which pain was orally reported on an 11-step scale (0 to 10). This evaluation method numerically expresses (quantifies) the degree of pain on a scale of 0 (no pain) to 10 (worst conceivable pain). This method provides a good reflection of the degree of pain of a patient before and after treatment.
From the 4th week of the first month, in addition to morphine, oral administration of fluvoxamine (Depromel tablets; produced by Meiji Seika Pharma Co., Ltd.) in a dose of 50 mg/day was started.
Then, from the 4th week of the 4th month, aripiprazole (Abilify tablets; produced by Otsuka Pharmaceutical Co., Ltd.) was orally administered in a dose of 3 mg/day. […] Furthermore, even when the administration of morphine was stopped from the 8th month, the NRS value remained at 0.
Thereafter, when the dose of aripiprazole (Abilify tablets; produced by Otsuka Pharmaceutical Co., Ltd.) was increased to 9 mg/day after the 4th week of the 9th month, and further increased to 12 mg/day after the 4th week of the 10th month, the NRS value was 0, and no change was observed.

These results are taken from patent US20120258971A1, “THERAPEUTIC AGENT FOR CHRONIC PAIN” (OTSUKA PHARMACEUTICAL CO., LTD., priority 2009, published 2012).

Molecules are shown by their SMILES. Counter-ions that a name gives are not always drawn.

Take `COCCCC/C(=N\OCCN)c1ccc(C(F)(F)F)cc1` [fluvoxamine]: the “Effect on pain of the chronic pain patient (in words)” value (“Effect on pain” below) is “the pain was not relieved at all”.

`O=C1CCc2ccc(OCCCCN3CCN(c4cccc(Cl)c4Cl)CC3)cc2N1` [aripiprazole, 7-{4-[4-(2,3-dichlorophenyl)-1-piperazinyl]butoxy}-3,4-dihydrocarbostyril]: the “Effect on pain” value was “could dramatically reduce the pain”. This compound had an NRS value (aripiprazole 3 mg/day oral from 4th week of 4th month, first week of the 5th month) of 1. Besides, where the note is “aripiprazole 3 mg/day oral, from the second week of the 6th month”, the NRS value is given as 0. Besides, where the note is “aripiprazole increased to 9 mg/day (after 4th week of 9th month) and 12 mg/day (after 4th week of 10th month)”, the NRS value is 0. The NRS value (aripiprazole, after morphine was stopped from the 8th month) worked out at 0.

Take `CN1CC[C@]23c4c5ccc(O)c4O[C@H]2[C@@H](O)C=C[C@H]3[C@H]1C5` [morphine hydrochloride tablets]: the “Effect on pain” value is on record as “the pain was not relieved”.
